Reference: patent publication US9795677B2, “Method for reducing damage caused by free radicals” (Original BioMedicals Co., Ltd, priority 2012, dated 2017)

Legend:
[1] = system: mouse embryonic liver cells (BNLCL.2); assay: Comet Assay of UV-irradiated cells (DNA damage); assay type: cell-based; conditions: BNLCL.2 cells, UVB 100 J·m-2; treatment given 30 minutes or 2 hr before UV irradiation; API and FeP 40 folds, FePA 20 folds dilution with PBS
Procedure: UV irradiation of the cells was used in this experiment to simulate the effects of radiation on normal cells, and the results were evaluated by Comet Assay. Comet Assay is a fast, sensitive and convenient method for examining DNA damage and is widely used in studying DNA damage caused by radiation, examining DNA crosslink, evaluating genotoxicity of drugs and identifying cell apoptosis, etc. […]
The mouse embryonic liver cells (BNLCL.2) were inoculated onto a 35 mm culture dish at the density of 3*10^5 cell/mL and cultured for at least 20 hours before subjected to the test. […] The treated cells were then collected with a scraper, counted, and centrifuged at 1,200 rpm for 5 minutes. […]
The bottle containing LM agarose was placed in 95° C. water for 5 minutes with loosed cap and then transferred to a 37° C. water bath for at least 20 minutes. […] The resulting images were analyzed using the epifluorescence microscope (the maximum excitation and emission wavelength of SYBR®Green I are 494 nm and 521 nm, respectively.) The fluorescence filter was also adjusted accordingly for efficient lighting) 200×.

NMRI mice = assay: Acute radiation protection in irradiated mice (WBC number); assay type: in vivo, mouse; conditions: 8Gy; amifostine 6.25 mg/kg i.v. 30 min before irradiation; 30 days after treatment
Procedure: Efficacy Result: In animal study, 30-day old NMRI mice weighing 20 to 30 g were tested for acute radiation protection. For radiation control group, mice were given 1, 4, and 8 Gy irradiation in 10 minutes, and for the standard treatment group, FDA-approved amifostine (6.25 mg/kg) was injected intravenously, and 30 minutes later the animals were given 8 Gy irradiation in 10 minutes. The 30 mins duration design is based on the short half-life of amifostine. A-01 indicates FePA with a formulation ratio of PEG-b-PGA:FeCl2.4H2O:amifostine=4:1:1 (w:w:w). The animals in the test group A-01 were administered intravenously with 37.5 mg/kg A-01 (containing the same amount of amifostine as used in the standard treatment group), and 120 minutes post injection, the animals were given 8 Gy radiation in 10 minutes. WBC number and survival rates were analyzed 30 days after treatment.

[2] = cited from earlier work

NCCCNCCSP(=O)(O)O [Amifostine]
average percentage of damaged DNA in the tail of the Comet (% TDNA) compared with the positive control group (UV) [1]: significantly reduced
WBC (NMRI mice): 3.04-3.80 1000/cm^3
amifostine remaining after i.v. injection ([2]; 6 minutes after i.v. injection): 10%
distribution half-life ([2]; patients): less than 1 minute
elimination half-life ([2]; patients): 8 min
